Assay results published in patent US10131652B2, “Pyrimidinyloxy benzene derivatives as herbicides” (E. I. DU PONT DE NEMOURS AND COMPANY, priority 2014, dated 2018).

How the values were obtained:
Type in all cases: in vivo
[1] = system: rice (Oryza sativa); assay: Test C flooded paddy test plant response; conditions: Flood, 250 g ai/ha; scale of 0 to 100 where 0 is no effect and 100 is complete control; 13 to 15 days
In short: (§1)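 Two-leaf stage → flood to 3 cm → compound into water → hold depth, greenhouse 13–15 d → visual score vs controls (0 none, 100 complete control).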

[2] = system: ducksalad (Heteranthera limosa); assay: Test C flooded paddy test plant response; conditions: Flood, 250 g ai/ha; scale of 0 to 100 where 0 is no effect and 100 is complete control; 13 to 15 days
In short: as §1

[3] = system: small-flower umbrella sedge (Cyperus difformis); assay: Test C flooded paddy test plant response; conditions: Flood, 250 g ai/ha; scale of 0 to 100 where 0 is no effect and 100 is complete control; 13 to 15 days
In short: as §1

[4] = system: barnyardgrass (Echinochloa crus-galli); assay: Test C flooded paddy test plant response; conditions: Flood, 250 g ai/ha; scale of 0 to 100 where 0 is no effect and 100 is complete control; 13 to 15 days
In short: as §1

[5] = system: winter wheat (Triticum aestivum); assay: Test D pre-/postemergence plant response
Description: (§2) Seeds of plant species selected from blackgrass (Alopecurus myosuroides), Italian ryegrass (Lolium multiflorum), winter wheat (Triticum aestivum), galium (catchweed bedstraw, Galium aparine), corn (Zea mays), large (Lg) crabgrass (Digitaria sanguinalis), giant foxtail (Setaria faberii), johnsongrass (Sorghum halepense), lambsquarters (Chenopodium album), morningglory (Ipomoea coccinea), yellow nutsedge (Cyperus esculentus), pigweed (Amaranthus retroflexus), ragweed (common ragweed, Ambrosia elatior), soybean (Glycine max), bamyardgrass (Echinochloa crus-galli), oilseed rape (Brassica napus), waterhemp (common waterhemp, Amaranthus rudis), and velvetleaf (Abutilon theophrasti) were planted into a blend of loam soil and sand and treated preemergence with test chemicals formulated in a non-phytotoxic solvent mixture which included a surfactant. At the same time, plants selected from these crop and weed species and also kochia (Kochia scoparia), wild oat (Avena fatua), and chickweed (common chickweed, Stellaria media) were planted in pots containing Redi-Earth® planting medium (Scotts Company, 14111 Scottslawn Road, Marysville, Ohio 43041) comprising spaghnum peat moss, vermiculite, wetting agent and starter nutrients and treated with postemergence applications of test chemicals formulated in the same manner. Plants ranged in height from 2 to 18 cm (1- to 4-leaf stage) for postemergence treatments. Treated plants and controls were maintained in a greenhouse for 13 to 15 days, after which time all species were compared to controls and visually evaluated. Plant response ratings, summarized in Table D, are based on a scale of 0 to 100 where 0 is no effect and 100 is complete control. A dash (-) response means no test result.

[6] = system: lambsquarters (Chenopodium album); assay: Test D pre-/postemergence plant response
Description: as §2

[7] = system: large (Lg) crabgrass (Digitaria sanguinalis); assay: Test D pre-/postemergence plant response
Description: as §2

[8] = system: johnsongrass (Sorghum halepense); assay: Test D pre-/postemergence plant response
Description: as §2

[9] = system: velvetleaf (Abutilon theophrasti); assay: Test D pre-/postemergence plant response
Description: as §2

[10] = system: blackgrass (Alopecurus myosuroides); assay: Test D pre-/postemergence plant response
Description: as §2

[11] = system: galium (catchweed bedstraw, Galium aparine); assay: Test D pre-/postemergence plant response
Description: as §2

[12] = system: corn (Zea mays); assay: Test B pre-/postemergence plant response
In short: (§3)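 Greenhouse pots, loam/sand soil; compound formulated with surfactant in non-phytotoxic solvent. Preemergence soil spray and postemergence spray at 1–2 leaf stage run simultaneously. Visual injury, 0–100, about 10 days post-treatment.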

[13] = system: pigweed (Amaranthus retroflexus); assay: Test B pre-/postemergence plant response
In short: as §3

[14] = system: giant foxtail (Setaria faberii); assay: Test B pre-/postemergence plant response
In short: as §3

[15] = system: wheat (Triticum aestivum); assay: Test B pre-/postemergence plant response
In short: as §3

[16] = system: barnyardgrass (Echinochloa crus-galli); assay: Test B pre-/postemergence plant response
In short: as §3

[17] = Postemergence, 16 g ai/ha, scale 0 to 100 (0 no effect, 100 complete control)
[18] = Postemergence, 31 g ai/ha, scale 0 to 100 (0 no effect, 100 complete control)
[19] = Postemergence, 62 g ai/ha, scale 0 to 100, 0 no effect, 100 complete control
[20] = Postemergence, 125 g ai/ha, scale 0 to 100, 0 no effect, 100 complete control
[21] = Preemergence, 16 g ai/ha, scale 0 to 100 (0 no effect, 100 complete control)
[22] = Preemergence, 31 g ai/ha, scale 0 to 100 (0 no effect, 100 complete control)
[23] = Preemergence, 62 g ai/ha, scale 0 to 100 (0 no effect, 100 complete control)
[24] = 125 g ai/ha, postemergence, 0 to 100 scale, 0 no effect, 100 complete control
[25] = Postemergence, 500 g ai/ha, 0 to 100 scale (0 no effect, 100 complete control)
[26] = Preemergence, 125 g ai/ha, 0 to 100 scale where 0 is no effect and 100 is complete control
[27] = Preemergence, 500 g ai/ha, 0 to 100 scale where 0 is no effect and 100 is complete control

Cc1cc(-c2ccccc2Oc2ncc(Cl)cn2)on1 [Compound 58]
55: Plant response rating, Galium [11, 20]
50: Plant response rating (scale 0 to 100), Johnsongrass ([8]; Preemergence, 125 g ai/ha) | Plant response rating, Corn [12, 25] | Plant response rating, Wheat [15, 25]
80: Ducksalad plant response rating [2] | Plant response rating, Blackgrass [10, 23]
45: Galium plant response rating [11, 18]
60: Plant response rating, Lambsquarters [6, 19] | Velvetleaf plant response rating [9, 17] | Plant response rating, Velvetleaf [9, 19] | Plant response rating, Galium [11, 19] | Plant response rating, Barnyardgrass [16, 26]
98: Plant response rating, Galium [11, 22]
100: Plant response rating (scale 0 to 100), Lambsquarters ([6]; Preemergence, 125 g ai/ha) | Plant response rating, Lambsquarters [6, 22] | Plant response rating, Lambsquarters [6, 23] | Plant response rating (scale 0 to 100), Crabgrass, Large ([7]; Preemergence, 125 g ai/ha) | Plant response rating, Crabgrass, Large [7, 23] | Plant response rating (scale 0 to 100), Velvetleaf ([9]; Preemergence, 125 g ai/ha) | Plant response rating, Velvetleaf [9, 22] | Plant response rating, Velvetleaf [9, 23] | Plant response rating (scale 0 to 100), Galium ([11]; Preemergence, 125 g ai/ha) | Plant response rating, Galium [11, 23] | Plant response rating, Pigweed [13, 24] | Plant response rating, Pigweed [13, 25] | Plant response rating, Pigweed [13, 26] | Plant response rating, Pigweed [13, 27] | Plant response rating, Foxtail, Giant [14, 27] | Plant response rating, Barnyardgrass [16, 27]
5: Wheat plant response rating [5, 18] | Crabgrass, Large plant response rating [7, 17] | Crabgrass, Large plant response rating [7, 18] | Plant response rating, Crabgrass, Large [7, 19] | Plant response rating, Crabgrass, Large [7, 20] | Plant response rating, Johnsongrass [8, 20] | Plant response rating, Blackgrass [10, 20] | Plant response rating, Blackgrass [10, 22]
35: Velvetleaf plant response rating [9, 18]
90: Plant response rating, Lambsquarters [6, 20] | Plant response rating, Crabgrass, Large [7, 22] | Plant response rating, Foxtail, Giant [14, 25] | Plant response rating, Foxtail, Giant [14, 26] | Plant response rating, Barnyardgrass [16, 25]
25: Plant response rating, Lambsquarters [6, 21] | Plant response rating, Crabgrass, Large [7, 21]
75: Lambsquarters plant response rating [6, 18]
40: Sedge, Umbrella plant response rating [3] | Galium plant response rating [11, 17]
85: Plant response rating, Velvetleaf [9, 20] | Plant response rating, Velvetleaf [9, 21]
70: Plant response rating, Foxtail, Giant [14, 24] | Plant response rating, Barnyardgrass [16, 24]
0: Rice plant response rating [1] | Barnyardgrass plant response rating [4] | Wheat plant response rating [5, 17] | Plant response rating (scale 0 to 100), Wheat ([5]; Preemergence, 125 g ai/ha) | Plant response rating, Wheat [5, 21] | Plant response rating, Wheat [5, 22] | Plant response rating, Wheat [5, 23] | Johnsongrass plant response rating [8, 17] | Johnsongrass plant response rating [8, 18] | Plant response rating, Johnsongrass [8, 19] | Blackgrass plant response rating [10, 17] | Blackgrass plant response rating [10, 18] | Plant response rating, Blackgrass [10, 19] | Plant response rating, Blackgrass [10, 21] | Plant response rating, Galium [11, 21] | Plant response rating, Corn [12, 24] | Plant response rating, Wheat [15, 24]
20: Plant response rating, Johnsongrass [8, 23]
95: Plant response rating (scale 0 to 100), Blackgrass ([10]; Preemergence, 125 g ai/ha)
10: Plant response rating, Wheat [5, 19] | Plant response rating, Wheat [5, 20] | Lambsquarters plant response rating [6, 17] | Plant response rating, Johnsongrass [8, 21] | Plant response rating, Johnsongrass [8, 22]

Cc1cc(-c2ccccc2Oc2ncc(Cl)cn2)no1 [Compound 60]
98: Plant response rating (scale 0 to 100), Galium ([11]; Preemergence, 125 g ai/ha) | Plant response rating, Galium [11, 21]
65: Plant response rating, Velvetleaf [9, 19] | Plant response rating, Galium [11, 20]
20: Barnyardgrass plant response rating [4] | Plant response rating, Wheat [5, 20] | Lambsquarters plant response rating [6, 17] | Lambsquarters plant response rating [6, 18] | Plant response rating, Blackgrass [10, 20]
100: Plant response rating (scale 0 to 100), Lambsquarters ([6]; Preemergence, 125 g ai/ha) | Plant response rating (scale 0 to 100), Crabgrass, Large ([7]; Preemergence, 125 g ai/ha) | Plant response rating, Crabgrass, Large [7, 23] | Plant response rating (scale 0 to 100), Velvetleaf ([9]; Preemergence, 125 g ai/ha) | Plant response rating, Velvetleaf [9, 22] | Plant response rating, Velvetleaf [9, 23] | Plant response rating, Galium [11, 23] | Plant response rating, Pigweed [13, 24] | Plant response rating, Pigweed [13, 25] | Plant response rating, Pigweed [13, 26] | Plant response rating, Pigweed [13, 27] | Plant response rating, Foxtail, Giant [14, 25] | Plant response rating, Foxtail, Giant [14, 27] | Plant response rating, Barnyardgrass [16, 25] | Plant response rating, Barnyardgrass [16, 27]
40: Velvetleaf plant response rating [9, 17] | Galium plant response rating [11, 18]
30: Rice plant response rating [1] | Galium plant response rating [11, 17] | Plant response rating, Corn [12, 24] | Plant response rating, Wheat [15, 24]
10: Plant response rating, Lambsquarters [6, 21] | Plant response rating, Blackgrass [10, 23]
15: Plant response rating, Johnsongrass [8, 23]
60: Plant response rating, Velvetleaf [9, 21]
5: Wheat plant response rating [5, 18] | Plant response rating, Wheat [5, 19] | Crabgrass, Large plant response rating [7, 17] | Crabgrass, Large plant response rating [7, 18] | Plant response rating, Crabgrass, Large [7, 19] | Plant response rating, Crabgrass, Large [7, 20] | Plant response rating, Crabgrass, Large [7, 21] | Plant response rating, Johnsongrass [8, 20] | Plant response rating, Blackgrass [10, 19] | Plant response rating, Blackgrass [10, 22]
90: Plant response rating, Corn [12, 25] | Plant response rating, Wheat [15, 25]
85: Plant response rating, Lambsquarters [6, 23] | Plant response rating, Galium [11, 22]
75: Plant response rating, Lambsquarters [6, 20]
50: Sedge, Umbrella plant response rating [3] | Velvetleaf plant response rating [9, 18] | Plant response rating, Galium [11, 19] | Plant response rating, Foxtail, Giant [14, 24] | Plant response rating, Barnyardgrass [16, 24]
0: Wheat plant response rating [5, 17] | Plant response rating (scale 0 to 100), Wheat ([5]; Preemergence, 125 g ai/ha) | Plant response rating, Wheat [5, 21] | Plant response rating, Wheat [5, 22] | Plant response rating, Wheat [5, 23] | Johnsongrass plant response rating [8, 17] | Johnsongrass plant response rating [8, 18] | Plant response rating, Johnsongrass [8, 19] | Plant response rating, Johnsongrass [8, 21] | Plant response rating, Johnsongrass [8, 22] | Blackgrass plant response rating [10, 17] | Blackgrass plant response rating [10, 18] | Plant response rating, Blackgrass [10, 21]
80: Ducksalad plant response rating [2] | Plant response rating, Lambsquarters [6, 22] | Plant response rating, Velvetleaf [9, 20] | Plant response rating, Foxtail, Giant [14, 26] | Plant response rating, Barnyardgrass [16, 26]
70: Plant response rating (scale 0 to 100), Blackgrass ([10]; Preemergence, 125 g ai/ha)
45: Plant response rating (scale 0 to 100), Johnsongrass ([8]; Preemergence, 125 g ai/ha)
55: Plant response rating, Lambsquarters [6, 19] | Plant response rating, Crabgrass, Large [7, 22]
